Measured values taken from article PMC10644720 (Frontiers in Pharmacology, 2023).

Tests used:
[1] = biological target: T1, Recombinant human GPVI protein (Homo sapiens, UniProt Q9HCN6); experiment: Surface plasmon resonance (SPR); conditions: Biacore S200, 25°C, 1:1 binding model
T1 construct: purchased MedChemExpress HY-P70180
T1 sequence (Q9HCN6 21-267 limits assumed): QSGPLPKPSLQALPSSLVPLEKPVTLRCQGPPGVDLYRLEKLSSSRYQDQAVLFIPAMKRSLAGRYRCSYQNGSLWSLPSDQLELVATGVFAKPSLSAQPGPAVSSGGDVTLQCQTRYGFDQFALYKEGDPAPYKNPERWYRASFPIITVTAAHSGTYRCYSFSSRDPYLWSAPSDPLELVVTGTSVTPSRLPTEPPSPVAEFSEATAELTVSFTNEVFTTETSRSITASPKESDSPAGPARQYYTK
Procedure: The SPR experiment was performed on a Biacore S200 instrument (GE Healthcare; Uppsala, Sweden) at 25°C. Recombinant human GPVI protein, rhGPVI (Cat. HY-P70180; MedChemExpress), was immobilized at the level of 4,400 response units, with 10 mM sodium acetate buffer (pH 4.5) on a Series S CM5 Sensor Chip (Cat. 29104988; cytiva) at the concentration of 50 μg/mL.

[2] = system: pulmonary thrombosis; experiment: Collagen-epinephrine-induced acute pulmonary embolism model and plasma oxidative markers; format: in vivo, C57BL/6 mice; conditions: luteolin 35 μM/kg
Procedure: The acute pulmonary embolism model in mice was similar to the previously reported literature with slight modifications ([Pan et al., 2021]). […] after a retro-orbital sinus injection of collagen (100 μg/kg)-epinephrine (300 μg/kg), the mice were anesthetized by pentobarbital (45 mg/kg, i.p.). Whole blood obtained from the eyes was anticoagulated with EDTA·2Na. Whole blood was centrifuged at 3,000 rpm for 10 min to get plasma. Measurement of MDA and SOD in plasma followed the manufacturer’s protocols. Mice were sacrificed by cervical dislocation. The lung tissue was taken and fixed in 4% paraformaldehyde overnight. Lung and sternum tissues were fixed in 4% paraformaldehyde, embedded in paraffin, and sectioned into 5-μm sections. After dewaxing and washing, the slices were incubated overnight at 4°C for immunostaining with anti-mouse CD41 antibody (Cat No. GTX113758, GeneTex Inc., Irvine, CA, United States) 0.63 μg/mL or with anti-mouse CD42b antibody (Cat No. 12860-1-AP; Proteintech Group Inc., Chicago, IL, United States) 1 μg/mL or an equivalent concentration of polyclonal non-immune IgG (Cat No. GTX213110-01; GeneTex) as control. The sections were washed three times and incubated for 50 min at room temperature with secondary antibodies. The nuclei were counterstained using hematoxylin. The tissues were observed using 3,3′-Diaminobenzidine tetrahydrochloride.

[3] = parameters: method as in Cheurfa et al., 2019; conditions: diet-induced obese mice; 200 mg/kg/d; ref Cheurfa et al., 2019; cited from earlier work
[4] = biological target: T2, rhGPVI (Homo sapiens, UniProt Q9HCN6); experiment: Solid phase binding assay (rhGPVI binding to immobilized collagen); conditions: rhGPVI 30 nM; collagen 5 μg/mL coated; read-out: IC50, inhibition of binding of rhGPVI to collagen
T2 construct: rhGPVI was expressed and purified according to the method reported in the literature; made in house
T2 sequence (Q9HCN6 21-203 limits assumed): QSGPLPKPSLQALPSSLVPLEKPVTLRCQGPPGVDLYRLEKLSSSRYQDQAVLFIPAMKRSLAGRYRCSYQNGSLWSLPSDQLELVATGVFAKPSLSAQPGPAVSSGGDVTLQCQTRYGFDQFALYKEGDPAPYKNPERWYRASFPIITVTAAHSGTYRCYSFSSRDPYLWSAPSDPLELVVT
Procedure: rhGPVI was expressed and purified according to the method reported in the literature ([Horii et al., 2006]). rhGPVI was cross-linked with 10 μg/mL of cross-linking antibody His Tag Horseradish Peroxidase-conjugated Antibody (Cat. MAB050H; R&D Systems, Minneapolis, MN, United States). Solid phase assays were performed based on previously described procedures ([Billiald et al., 2023]). Collagen (5 μg/mL prepared in PBS) was used to coat 96-well plates overnight at 4°C. Non-specific sites were closed by Superblock (Cat. 37580; Thermo Fisher Scientific, Waltham, MA, United States). […] 1-StepTM Ultra TMB-ELISA (Cat. 34022; Thermo Fisher Scientific, Waltham, MA, United States) was developed, and the reaction was stopped with a 2 M sulphuric acid solution. Absorbance values were read at 450 nm. At least three washes were performed with PBS between each of the above steps. Each spot was measured three times.

[5] = Coagulation function in mice; format: in vivo, C57BL/6 mice; conditions: 30 min after administration
Procedure: Then, 30 min after administration, blood was removed from the eyes and anticoagulated with 3.8% sodium citrate. The plasma was obtained by centrifugation at 3,000 rpm for 10 min at room temperature, and coagulation-related indexes were measured using an STA Compact Max (Diagnostica Stago, Inc. Asnières-sur-Seine, France).

[6] = system: coagulation factor X; parameters: method as in Choi et al. (2015); conditions: ref Choi et al. (2015); cited from earlier work
[7] = parameters: method as in Aziz et al., 2018; conditions: intraperitoneal injection; ref Aziz et al., 2018; cited from earlier work
[8] = system: mesenteric artery thrombosis; experiment: Ferric chloride-induced mesenteric thrombosis in mice; format: in vivo, C57BL/6 mice; conditions: luteolin 35 μM/kg or aspirin 0.5 mM/kg i.p., 30 min before FeCl3
Procedure: A method reported in the literature was used to observe mesenteric artery thrombosis in mice ([Bonnard and […], 2015]). […] The mice were anesthetized by an intraperitoneal injection of pentobarbital (45 mg/kg). They were given an intraperitoneal injection of DMSO, luteolin, or aspirin. They were also given an orbital vein injection of 5 μg/kg rhodamine (Cat No. 83697-250 MG; Sigma-Aldrich, St. Louis, MO, United States) ([Bonnard and […], 2015]), respectively. The mesenteric vessels were exposed by opening the abdominal cavity, and small mesenteric arteries with a diameter of approximately 150-250 μm were selected under the microscope. […] During thrombosis, images were taken every 1 min for the first 10 min and every 5 min after 10 min using an MSHOT MD50 camera (Micro Shot Technology Ltd., Guangzhou, China) and an Olympus ix73 microscope (Olympus Corp., Shinjuku, Japan). […] The size of the thrombus formation was calculated using ImageJ software.

O=c1cc(-c2ccc(O)c(O)c2)oc2cc(O)cc(O)c12 [Luteolin]
K a [1]: 7,227 m^−1s^−1
K d [1]: 0.03 s⁻¹
Kd [1]: 4.13 µM
area and size of thrombus formation in lungs ([2]; 30 min before collagen-epinephrine): significantly attenuated
MDA levels in plasma ([2]; mice with pulmonary embolism): significantly decreased
SOD activity in plasma ([2]; mice with pulmonary embolism): increased
low-density lipoprotein content [3]: significantly reduced
IC50 [4]: 5.49 µM
activated partial thromboplastin time (APTT) [5]: no significant effects
plasma concentration of fibrinogen [5]: no significant effects
prothrombin time (PT) [5]: no significant effects
thrombin time (TT) [5]: no significant effects
coagulation factor X activity [6]: effectively inhibits
LD50 [7]: 180 mg/kg
time of clot obstruction of blood vessels [8]: significantly prolong
time of initial thrombus formation [8]: Neither the 0.5 mM/kg aspirin group or 35 μM/kg luteolin group prolonged
